Each compound was assayed against T1, hMCHR (Homo sapiens, UniProt Q99705) (assay: MCH Assay PCOP Protocol: [125I]-MCH binding to hMCHR-CHO membranes, WGA-SPA beads). Settings: hMCHR-CHO overexpressing membranes, 0.5 nM [125I]-MCH, 2 hours incubation.
T1 construct: host or cells: CHO (Chinese hamster ovary) cells, membranes
T1 sequence (Q99705 whole entry): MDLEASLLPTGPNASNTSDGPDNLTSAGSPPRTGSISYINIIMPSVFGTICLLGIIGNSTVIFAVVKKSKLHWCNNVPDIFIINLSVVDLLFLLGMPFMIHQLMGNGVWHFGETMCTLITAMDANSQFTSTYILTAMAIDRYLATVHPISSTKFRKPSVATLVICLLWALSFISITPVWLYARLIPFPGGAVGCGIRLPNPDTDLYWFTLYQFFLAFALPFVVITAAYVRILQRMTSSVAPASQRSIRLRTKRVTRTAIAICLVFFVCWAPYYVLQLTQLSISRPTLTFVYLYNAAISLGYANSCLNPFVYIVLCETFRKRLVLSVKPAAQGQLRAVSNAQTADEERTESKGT
Procedure: A reaction mixture of 10 μg hMCHR-CHO overexpressing membranes (from Receptor Biology, Inc., Beltville, Md., or internally produced) and 100 μg/well WGA-SPA beads (from Amersham Pharmacia Biotech, Inc., Piscataway, N.J.)/100 μL was prepared in MCHR assay buffer (25 mM HEPES, pH 7.4, 10 mM NaCl, 10 mM MgCl2, 5 mM MnCl2, 0.1%BSA). […] The assay plates were shaken for 5 minutes on a plate shaker, then incubated for 2 hours before cpm/well were determined in a Microbeta Trilux counter (from Perkin Elmer Wallac, Inc., Gaithersburg, Md.).
In the case of “3-Chloro-N-[4-(3′-cyano-biphenyl-4-yl)-1-cyclopropylmethyl-piperidin-4-ylmethyl]-4-fluoro-benzenesulfonamide [Example 11]”, the Ki is reported as 101 to 5500 nM.
In the case of CC(C)CN1CCC(CNC(=O)Nc2cc(Cl)cc(Cl)c2)(c2ccc(-c3cccc(C#N)c3)cc2)CC1 [Example 7, 1-[4-(3′-Cyano-biphenyl-4-yl)-1-isobutyl-piperidin-4-ylmethyl]-3-(3,5-dichloro-phenyl)-urea], the Ki is reported as 11 to 100 nM.
Compound CN1CCC(CNC(=O)Nc2ccc(F)cc2F)(c2ccc(-c3cccc(C#N)c3)cc2)CC1 [Example 9, 1-[4-(3′-Cyano-biphenyl-4-yl)-1-methyl-piperidin-4-ylmethyl]-3-(2,4-difluoro-phenyl)-urea] has a Ki of 0.2 to 10 nM.
N#Cc1cccc(-c2ccc(C3(CNC(=O)Cc4cc(F)cc(F)c4)CCN(CC4CC4)CC3)cc2)c1 [Example 10, N-[4-(3′-Cyano-biphenyl-4-yl)-1-cyclopropylmethyl-piperidin-4-ylmethyl]-2-(3.5-difluoro-phenyl)-acetamide] gave a Ki of 101 to 5500 nM.
In the case of CC(C)COC(=O)NCC1(c2ccc(-c3cccc(C#N)c3)cc2)CCN(CC2CC2)CC1 [Example 12, [4-(3′-Cyano-biphenyl-4-yl)-1-cyclopropylmethyl-piperidin-4-ylmethyl]-carbamic acid isobutyl ester], the Ki is reported as 101 to 5500 nM.
With CN1CCC(CN2CCN(c3ccc(F)c(F)c3)C2=O)(c2ccc(-c3cccc(C#N)c3)cc2)CC1 [Example 13] the Ki was 11 to 100 nM.
CN(CC1(c2ccc(-c3cccc(C#N)c3)cc2)CCN(CC2CC2)CC1)C(=O)Nc1cc(Cl)cc(Cl)c1 [Example 14, 1-[4-(3′-Cyano-biphenyl-4-yl)-1-cyclopropylmethyl-piperidin-4-ylmethyl]-3-(3,5-dichloro-phenyl)-1-methyl-urea] gave a Ki of 0.2 to 10 nM.
For CN1CCC(C(=O)Nc2cc(Cl)cc(Cl)c2)(c2ccc(-c3cccc(C#N)c3)cc2)CC1 [Example 15, 4-(3′-Cyano-biphenyl-4-yl)-1-methyl-piperidine-4-carboxylic acid (3.5-dichloro-phenyl)-amide], the Ki was 101 to 5500 nM.
With CN1CCC(C(=O)NCc2cc(Cl)cc(Cl)c2)(c2ccc(-c3cccc(C#N)c3)cc2)CC1 [Example 16, 4-(3′-Cyano-biphenyl-4-yl)-1-methyl-piperidine-4-carboxylic acid 3,5-dichloro-benzylamide] the Ki was 101 to 5500 nM.
CN1CCC2(CC1)CN(C(=O)Nc1ccc(F)c(Cl)c1)c1cc(-c3cccc(C#N)c3)ccc12 [Example 17, 1-(3-Chloro-4-fluorophenyl)ureido-6-(3-cyanophenyl)-1′-methyl-spiro[indoline-3,4′-piperidine]] gave a Ki of 101 to 5500 nM.
O=C(NCC1(c2ccc(-c3cccnc3)cc2)CCN(C2CCCC2)CC1)Nc1cc(Cl)cc(Cl)c1 [Example 20] gave a Ki of 0.2 to 10 nM.
For Cc1ccc(C2(CNC(=O)Nc3cc(Cl)cc(Cl)c3)CCNCC2)cc1 [Example 23], the Ki was 101 to 5500 nM.
CN1CCC(CNC(=O)Nc2cc(Cl)cc(Cl)c2)(c2cccc(Cl)c2)CC1 [Example 24] showed a Ki of 101 to 5500 nM.
With Cc1ccc(C2(CNC(=O)Nc3cc(Cl)cc(Cl)c3)CCN(CC3CC3)CC2)cc1 [Example 25] the Ki was 101 to 5500 nM.
Work on Cc1ccc(C2(CNC(=O)Nc3cc(Cl)cc(Cl)c3)CCN(C3CCCC3)CC2)cc1 [Example 26] yielded a Ki of 101 to 5500 nM.
CCCN1CCC(CNC(=O)Nc2cc(Cl)cc(Cl)c2)(c2ccc(C)cc2)CC1 [Example 27] showed a Ki of 101 to 5500 nM.
In the case of CN1CCC(CNC(=O)Nc2ccc(F)c(F)c2)(c2ccc(-c3cccnc3)cc2)CC1 [Example 30], the Ki is reported as 11 to 100 nM.
CN(C)S(=O)(=O)N1CCC(CNC(=O)Nc2cc(Cl)cc(Cl)c2)(c2ccc(-c3cccc(C#N)c3)cc2)CC1 [Example 31] was tested, and the Ki was 11 to 100 nM.
In the case of COCCN1CCC(CNC(=O)Nc2cc(Cl)cc(Cl)c2)(c2ccc(-c3ccc4c(c3)OCO4)cc2)CC1 [Example 33], the Ki is reported as 11 to 100 nM.
Work on COCCN1CCC(CNC(=O)Nc2cc(Cl)cc(Cl)c2)(c2ccc(-c3cccc(Cl)c3)cc2)CC1 [Example 35] yielded a Ki of 0.2 to 10 nM.
CN1CCC(CNC(=O)Nc2ccc(Cl)cc2Cl)(c2ccc(-c3cccc(C#N)c3)cc2)CC1 [Example 36] gave a Ki of 11 to 100 nM.
